# From patent US20050113443A1, “Modulation of airway inflammation in patients with cystic fibrosis and related diseases” (priority 2003, published 2005)
# Legend:
# [1] = test system: primary human bronchial epithelial cells; test: P. aeruginosa-induced IL-8 secretion by primary human bronchial epithelial cells (ELISA); assay type: cell-based; details: cells treated 2 h with analogue (nanomolar concentrations), stimulated 1 h with 3×10^7 cfu P. aeruginosa PA01, supernatants after 4 more hours, vs vehicle (0.01% ethanol), FIG. 2, P<0.002
# Procedure: We further examined whether LX analogues were able to inhibit P. aeruginosa-induced IL 8 production from primary human bronchial epithelial cells. Primary bronchial epithelial cells from non-smokers obtained from Clonetics/Cambrex were grown until subconfluent, treated for 2 h with LXA4 analogue or vehicle control (0.01% ethanol), stimulated for 1 h with 3×10^7 cfu of P. aeruginosa strain PA01, and subsequently washed. Cell-free supernatants were harvested after 4 more hours of incubation, and analyzed by ELISA for IL-8 secretion. For this purpose we used the metabolically stable analog 15-epi-16-(p-fluorophenoxy) LXA4 methyl ester, prepared according to Example 2. […] Primary human bronchial epithelial cells were pretreated with an LXA4 analogue (15-epi-16-[p-fluorophenoxy LXA4] methyl ester) or vehicle control and subsequently stimulated with P. aeruginosa strain PA01. IL-8 was measured in cell-free supernatants. Mean IL-8 production was 1620±116 pg/ml in vehicle control cultures.
# [2] = test system: C57BL/6 mice challenged intratracheally with mucoid P. aeruginosa (strain M57-15); test: Mouse model of chronic airway inflammation and infection of cystic fibrosis (mucoid P. aeruginosa entrapped in agarose beads); assay type: in vivo; details: vs vehicle controls
# From the text: Chronic infections with mucoid P. aeruginosa tend to persist in patients with CF. In turn, chronic airway infection with mucoid P. aeruginosa is a major cause of morbidity and mortality among CF patients. In order to achieve chronic airway infections with P. aeruginosa in murine models, it is necessary to enmesh the bacteria with an immobilizing agent such as agar (Pediatr Pulmonol 30:413.; Lab Animals 36:291). This also provides an experimental mimic of the growth of P. aeruginosa as a biofilm, which appears to be its predominant state in the CF airway (Pediatr Pulmonol 30:413, 2000; Pediatr Res 22:698, 1987; Trends Microbiol 9:50, 2001). C57/B16 mice are used, as the inflammatory response to P. aeruginosa infection of this moderately susceptible strain is a fair mimic of that seen in CF patients (Pediatr Pulmonol 30:413). Indeed, in C57/B16 mice, agar bead delivery of P. aeruginosa leads to histopathological changes, including bronchiectasis, similar to those found in patients with CF (Pediatr Pulmonol 30:413, 2000). This chronic model allows for the characterization of the effects of LX analogues on chronic, ongoing airway infection and inflammation using a model that is highly relevant to, and a reasonable mimic of, the CF airway.
# Modifications were made in a previously described model (van Heeckeren, A. M. etal Lab Anim 36, 291, 2002). 6-8 week old female C57BL/6 mice were immunized in the dermis of the ear with heat-killed P. aeruginosa (mucoid strain M57-15) in incomplete Freund's adjuvant 10 days prior to P. aeruginosalagar bead challenge. Mice were challenged intratracheally (non-traumatically as previously described, Wills-Karp, M. et al. Science 282, 2258, 1998) with 3×10^4 P. aeruginosa (mucoid strain M57-15) entrapped in […] agarose beads. Beginning 1 day prior to such challenge, mice were treated with an LXA4 analogue (15-epi-16-[p-fluorophenoxy LXA4] methyl ester) by oral administration, through placing 10 μg/ml of the analogue in the drinking water (Gewirtz, A. T. et al. J Immunol 168, 5260, 2002), supplemented with a single daily intravenous dose of 1 μg by tail vein. Controls received trace volumes (identical to that administered to lipoxin analogue-treated mice) of ethanol in drinking water and intravenously. Mice were weighed daily. Five days after P. aeruginosa/agar bead challenge, mice were sacrificed, BAL was performed, and lungs were harvested for measurement of lung Pseudomonas burden and myeloperoxidase by standard techniques (van Heeckeren, A. M. et al Lab Anim 36, 291, 2002; Wills-Karp, M. et al. Science 282, 2258, 1998; Andrews, P. C. et al. Anal Biochem 127, 346, 1982). Animal care was provided in accordance with National Institutes of Health guidelines. This was done in order to model an additional immunological feature of individuals with cystic fibrosis and P. aeruginosa colonization/infection: potent adaptive immune responses, marked by anti-pseudomonal antibodies and T cells reactive with pseudomonal proteins.
# C57/B16 mice were challenged intratracheally (non-traumatically as previously described [Science 282:2258, 1998; Nature Immunol 1:221,2000]) with 3×10^4 P. aeruginosa (mucoid strain M57-15) entrapped in agar beads (70-200 uM). […]
structure (smiles),measurement,setting,value
"COC(=O)CCC[C@H](O)[C@H](O)/C=C/C=C/C=C\C=C\[C@H](O)COc1ccc(F)cc1 [(5S, 6R, 15S)-trihydroxy-16-(4-fluorophenoxy)-hexadeca-(7E, 9E, 11Z,13E)-tetraenoic acid methyl ester]",P. aeruginosa-mediated IL-8 secretion,[1],inhibits
same,P. aeruginosa-mediated IL-8 secretion,[1]; listed as LXA4 analogue,significantly inhibits
same,weight loss,"[2]; 10 μg/ml in drinking water plus 1 μg i.v. daily from 1 day before challenge, weighed daily, FIG. 3",less weight loss
same,recovery of lost weight,"[2]; 10 μg/ml in drinking water plus 1 μg i.v. daily, weighed daily, FIG. 3",earlier and more complete recovery of lost weight
same,bronchoalveolar lavage total cell counts,"[2]; BAL five days after challenge, FIG. 4A",significant suppression of total cell counts
same,airway neutrophilia (BAL neutrophils),"[2]; BAL five days after challenge, FIG. 4B",significant inhibition of airway neutrophilia
same,airway lymphocyte counts,"[2]; BAL five days after challenge, FIG. 4C",significant increase in airway lymphocyte counts
same,percentage of airway macrophages,"[2]; BAL five days after challenge, FIG. 4D",increase in the percentage of airway macrophages
same,neutrophil/lymphocyte ratio in the airway,"[2]; BAL five days after challenge, FIG. 4E",significant decrease
same,neutrophil/macrophage ratio in the airway,"[2]; BAL five days after challenge, FIG. 4F",significant decrease
same,whole lung P. aeruginosa burden,"[2]; lungs harvested five days after challenge, quantitative microbiological techniques, FIG. 6",decrease in lung bacterial burden
same,whole lung myeloperoxidase levels (neutrophil accumulation in the lung parenchyma),"[2]; lungs harvested five days after challenge, FIG. 5",significantly reduced neutrophil accumulation in the lung parenchyma
